# Patent US4812465A, “Triazole derivatives for use as antimycotic agents” (CL Pharma Aktiengesellschaft, priority 1986, dated 1989)
# Tests used:
# Trichophyton rubrum = test: In vitro determination of minimum inhibitory concentration (MIC), serial dilution; assay type: cell-based; details: 336 h, pH 6, Trichophyton rubrum, pH 6.0, 22° C., 14 days
# Experimental: (§1) The antimycotic activities of the compounds were measured by in vitro determination of the minimum inhibitory concentration (MIC) for yeasts, molds and dermatophytes.
# (§2) 6 dermatophytes, 2 yeasts and 4 molds were used for testing with fungi, as follows:
# (§3) The minimum inhibitory concentration (MIC) was determined in serial dilution tests in test tubes. The volume of the liquid nutrient medium in each test tube was 4.5 ml.
# (§4) The substances were dissolved in DMSO and diluted with sterile distilled water to 10 concentrations (100, 50, 25, 12.5, 6.25, 3.12, 1.56, 0.78, 0.39 and 0.19 μg/ml). 0.5 ml of each of these dilution steps was added to liquid nutrient medium. Thus, a constant concentration of solvent in all the nutrient media was ensured, irrespective of the active compound concentration.
# (§5) A comparison solution which contained only the solvent in appropriate concentration was included when carrying out each of the tests.
# (§6) The individual strains were maintained on Sabouraud/beerwort agar slants and, before they were used in a test, they underwent a passage on a modified Sabouraud liquid nutrient medium. The strains were then harvested, washed and converted into a suspension of McFaerland 3 in the case of yeasts and molds and of McFaerland 4-5 in the case of dermatophytes.
# (§7) The amount of material inoculated (inoculum) was 100 μl/test tube (inoculated densities: yeasts about 10^3 /ml, molds about 10^4 /ml, dermatophytes about 10^4 /ml). The pH of the liquid nutrient medium was 6.0. After inoculation had taken place the fungi were incubated at 22° C. for 14 days.
# (§8) The MIC was then determined. The concentration step at which growth was no longer visible on macroscopic inspection was used for the determination of the MIC. The comparison substance used was 1-(2-(2,4-dichlorophenyl)-2-(2,4-dichlorophenylmethoxy)ethyl)-1H-imidazole(compound A).
# Aspergillus fumigatus = test: as above; assay type: cell-based; details: 20160 min, pH 6
# Experimental: as §1, §2, §3, §4, §5, §6, §7, §8
# Candida tropicalis = test: as above; assay type: cell-based; details: 336 h, pH 6, Candida tropicalis, pH 6.0, 22° C., 14 days, read-out: MIC C.trop
# Experimental: as §1, §2, §3, §4, §5, §6, §7, §8
# Mucor mucedo plus = test: as above; assay type: cell-based; details: Mucor mucedo, 336 h, pH 6, Mucor mucedo plus; pH 6.0, 22° C., 14 days
# Experimental: as §1, §2, §3, §4, §5, §6, §7, §8
# Candida albicans = test: as above; assay type: cell-based; details: 336 h, pH 6, Candida albicans, pH 6.0, 22° C., 14 days, read-out: MIC C.alb
# Experimental: as §1, §2, §3, §4, §5, §6, §7, §8
# Mucor mucedo minus = test: as above; assay type: cell-based; details: Mucor mucedo, 336 h, pH 6, Mucor mucedo minus; pH 6.0, 22° C., 14 days
# Experimental: as §1, §2, §3, §4, §5, §6, §7, §8
# [1] = test system: Trichophyton mentagrophytes; test: as above; assay type: cell-based; details: 336 h, pH 6, Trichophyton mentagrophytes, pH 6.0, 22° C., 14 days
# Experimental: as §1, §2, §3, §4, §5, §6, §7, §8
# Microsporum canis = test: as above; assay type: cell-based; details: 336 h, pH 6, Microsporum canis, pH 6.0, 22° C., 14 days
# Experimental: as §1, §2, §3, §4, §5, §6, §7, §8
# Microsporum gypseum = test: as above; assay type: cell-based; details: Nannizzia gypsea, 336 h, pH 6, Microsporum gypseum; pH 6.0, 22° C., 14 days; read-out: MIC Mi.gyp
# Experimental: as §1, §2, §3, §4, §5, §6, §7, §8
# Trichophyton verrucosum = test: as above; assay type: cell-based; details: 336 h, pH 6, Trichophyton verrucosum, pH 6.0, 22° C., 14 days
# Experimental: as §1, §2, §3, §4, §5, §6, §7, §8
# Epidermophyton floccosum = test: as above; assay type: cell-based; details: 336 h, pH 6, Epidermophyton floccosum, pH 6.0, 22° C., 14 days
# Experimental: as §1, §2, §3, §4, §5, §6, §7, §8
# Absidia ramosa = test: as above; assay type: cell-based; details: Lichtheimia ramosa, 336 h, pH 6, Absidia ramosa; pH 6.0, 22° C., 14 days
# Experimental: as §1, §2, §3, §4, §5, §6, §7, §8
# rats [2] = test: Determination of the lethal dose on single oral administration; assay type: in vivo; details: for LD100: oral, once
# Experimental: (§9) Determination of the lethal dose of 1-(2-(2,4-dichlorophenyl)-2-(3-(4-chlorophenylthio)propylamino)ethyl)-1H-imidazole dihydrochloride (compound No. 96) in mice and rats on administration once.
# (§10) In each case, oral doses of 0, 500, 1,000 and 3,000 mg/kg of body weight were administered to four groups of female and male animals.
# (§11) (Control: double-distilled water)
# (§12) The following clinical signs were observed.
# mice [3] = test: as above; assay type: in vivo; details: for LD100: oral, once
# Experimental: as §9, §10, §11, §12
# rats [4] = test: Determination of the LD50 by i.v. administration; assay type: in vivo; details: i.v. 12.5-100 mg/kg
# Experimental: (§13) Determination of the LD50 of 1-(2-(2,4-dichlorophenyl)-2-(3-(4-chlorophenylthio)propylamino)ethyl)-1H-imidazole dihydrochloride (compound No. 96) in mice and rats by i.v. administration. In each case, 0 (0.9% NaCl solution), 12.5, 25.0, 50.0 and 100 mg/kg of body weight were injected i.v. into 5 groups of female and male animals.
# as §12
# [5] = Determination of the LD50 by i.v. administration; assay type: in vivo; details: in vivo, iv
# Experimental: as §13, §12
# mice [6] = test: Determination of the LD50 by i.v. administration; assay type: in vivo; details: i.v. 12.5-100 mg/kg
# Experimental: as §13, §12
# [7] = test system: Salmonella typhimurium strains TA 1535, TA 1537, TA 1538, TA 98 and TA 100; test: Potential to cause gene mutations in Salmonella typhimurium; assay type: cell-based; details: 3.3-1,000 μg/plate
# Experimental: Compound No. 96 was investigated for its potential to cause gene mutations in five Salmonella typhimurium strains TA 1535, TA 1537, TA 1538, TA 98 and TA 100.
# The following concentrations were tested, both with metabolic activator (S 9 mix) and without metabolic activator.
# [8] = oral 0, 500, 1,000 and 3,000 mg/kg
smiles,measurement,setting,value
"Cl.Cl.Clc1ccc(SCCCNC(Cn2ccnc2)c2ccc(Cl)cc2Cl)cc1 (centres unmarked) [Compound 96, 1-(2-(2,4-dichlorophenyl)-2-(3-(4-chlorophenylthio)propylamino)ethyl)-1H-imidazole dihydrochloride]",MIC,Trichophyton rubrum,0.19 µg/mL
same,MIC Asp.fu.,Aspergillus fumigatus,"0,78 μg/ml"
same,MIC,Candida tropicalis,0.78 µg/mL
same,MIC,Mucor mucedo plus,1.56 µg/mL
same,MIC,Candida albicans,0.39 µg/mL
same,MIC,Mucor mucedo minus,1.56 µg/mL
same,MIC,[1],0.39 µg/mL
same,MIC,Microsporum canis,0.39 µg/mL
same,MIC,Microsporum gypseum,0.39 µg/mL
same,MIC,Trichophyton verrucosum,0.39 µg/mL
same,MIC,Epidermophyton floccosum,0.19 µg/mL
same,MIC,Absidia ramosa,1.56 µg/mL
same,LD100,rats [2]; female,> 500 mg/kg
same,LD100,rats [2]; male,"> 1,000 mg/kg"
same,clinical signs,rats [2]; [8],"Inactivity, ruffled fur, convulsions"
same,LD100,mice [3]; female,"> 1,000 mg/kg"
same,LD100,mice [3]; male,> 500 mg/kg
same,clinical signs,mice [3]; [8],"Inactivity, convulsions"
same,clinical signs,rats [4],"Inactivity, necrotic tail, convulsions"
same,LD50,"[5]; mouse, mice, female, range in parentheses",84.1 mg/kg
same,LD50,"[5]; mouse, mice, male, range in parentheses",42 mg/kg
same,LD50,"[5]; rat, rats, female, range in parentheses",56.1 mg/kg
same,LD50,"[5]; rat, rats, male",70.7 mg/kg
same,clinical signs,mice [6],"Inactivity, necrotic tail"
same,mutagenic activity,[7]; with metabolic activator (S 9 mix),No mutagenic activity whatever was observed
same,mutagenic activity,[7]; without metabolic activator,No mutagenic activity whatever was observed
